Results published in article PMC5218480 (PLoS ONE, 2017).

System: MV-4-11 cells
Test: Gene expression microarray analysis (Affymetrix PrimeView) and GSEA
Assay type: cell-based, human
Set-up: RFU PODN (11730768_x_at) / Fold change /veh PODN (11730768_x_at) / RFU LINC00158 (11744669_a_at) / Fold change /veh LINC00158 (11744669_a_at) / RFU DUSP10 (11751237_a_at) / Fold change /veh DUSP10 (11751237_a_at) / RFU ID3 (11757404_x_at) / Fold change /veh ID3 (11757404_x_at) / RFU PLEKHG5 (11737974_s_at) / Fold change /veh PLEKHG5 (11737974_s_at) / RFU LRRC4B (11730491_at) / Fold change /veh LRRC4B (11730491_at) / RFU GIMAP4 (11747438_a_at) / Fold change /veh GIMAP4 (11747438_a_at) / RFU KRT8 (11758183_x_at) / Fold change /veh KRT8 (11758183_x_at) / RFU CNN1 (11734310_a_at) / Fold change /veh CNN1 (11734310_a_at) / RFU VPS37D (11726825_at) / Fold change /veh VPS37D (11726825_at) / RFU C10orf10 (11716522_x_at) / Fold change /veh C10orf10 (11716522_x_at) / RFU KIR2DL2 /// KIR2DL4 /// KIR2DL5A /// KIR2DL5B /// KIR2DS1 /// KIR2DS2 /// KIR2DS3 /// KIR2DS4 /// KIR3DL3 /// KIR3DL3 /// KIR3DS1 (11738374_at) / Fold change /veh KIR2DL2 /// KIR2DL4 /// KIR2DL5A /// KIR2DL5B /// KIR2DS1 /// KIR2DS2 /// KIR2DS3 /// KIR2DS4 /// KIR3DL3 /// KIR3DL3 /// KIR3DS1 (11738374_at) / RFU C1QL1 (11718748_at) / Fold change /veh C1QL1 (11718748_at) / RFU TMPRSS4 (11747572_a_at) / Fold change /veh TMPRSS4 (11747572_a_at) / RFU HAMP (11756126_x_at) / Fold change /veh HAMP (11756126_x_at) / RFU RNFT2 (11725882_a_at) / Fold change /veh RNFT2 (11725882_a_at) / RFU NR4A2 (11747474_a_at) / Fold change /veh NR4A2 (11747474_a_at) / RFU ABCC12 (11746883_a_at) / Fold change /veh ABCC12 (11746883_a_at) / RFU TMEM136 (11760407_x_at) / Fold change /veh TMEM136 (11760407_x_at) / RFU CLDN22 /// WWC2 (11732394_at) / Fold change /veh CLDN22 /// WWC2 (11732394_at) / RFU HLA-DPB1 (11760878_x_at) / Fold change /veh HLA-DPB1 (11760878_x_at) / RFU SPINT1 (11716480_a_at) / Fold change /veh SPINT1 (11716480_a_at) / RFU GAP43 (11754022_s_at) / Fold change /veh GAP43 (11754022_s_at) / RFU A4GNT (11735810_at) / Fold change /veh A4GNT (11735810_at) / RFU PRB3 (11715151_x_at) / Fold change /veh PRB3 (11715151_x_at) / RFU TUBB4B (11761932_at) / Fold change /veh TUBB4B (11761932_at) / RFU CAPN14 (11732068_a_at) / Fold change /veh CAPN14 (11732068_a_at) / RFU TMCC2 (11721928_a_at) / Fold change /veh TMCC2 (11721928_a_at) / RFU IRGQ (11745062_a_at) / Fold change /veh IRGQ (11745062_a_at) / RFU FAM174B (11720279_a_at) / Fold change /veh FAM174B (11720279_a_at) / RFU TMPRSS4 (11748680_a_at) / Fold change /veh TMPRSS4 (11748680_a_at) / RFU FAM212B (11763350_a_at) / Fold change /veh FAM212B (11763350_a_at) / RFU PLEKHG5 (11743358_a_at) / Fold change /veh PLEKHG5 (11743358_a_at) / RFU ZSCAN30 (11745921_a_at) / Fold change /veh ZSCAN30 (11745921_a_at) / RFU CMKLR1 (11741424_a_at) / Fold change /veh CMKLR1 (11741424_a_at) / RFU LOC101060620 /// MAPK8IP1 (11723275_at) / Fold change /veh LOC101060620 /// MAPK8IP1 (11723275_at) / RFU SPTSSB (11747773_x_at) / Fold change /veh SPTSSB (11747773_x_at) / RFU PRSS12 (11739890_at) / Fold change /veh PRSS12 (11739890_at) / RFU BIN1 (11741810_x_at) / Fold change /veh BIN1 (11741810_x_at) / RFU WNT11 (11732464_a_at) / Fold change /veh WNT11 (11732464_a_at) / RFU C10orf10 (11716521_a_at) / Fold change /veh C10orf10 (11716521_a_at) / RFU C5orf56 (11738089_at) / Fold change /veh C5orf56 (11738089_at) / RFU CYB561 (11721691_x_at) / Fold change /veh CYB561 (11721691_x_at) / RFU ANKRD19P (11752326_a_at) / Fold change /veh ANKRD19P (11752326_a_at) / RFU OR2T12 /// OR2T33 /// OR2T8 (11738714_s_at) / Fold change /veh OR2T12 /// OR2T33 /// OR2T8 (11738714_s_at) / RFU VCAN (11748164_a_at) / Fold change /veh VCAN (11748164_a_at) / RFU JSRP1 (11732532_at) / Fold change /veh JSRP1 (11732532_at) / RFU KRTAP10-11 (11738290_x_at) / Fold change /veh KRTAP10-11 (11738290_x_at) / RFU MYO3A (11730013_a_at) / Fold change /veh MYO3A (11730013_a_at) / RFU EBF3 (11725865_a_at) / Fold change /veh EBF3 (11725865_a_at) / RFU CAMK2N1 (11719241_x_at) / Fold change /veh CAMK2N1 (11719241_x_at) / RFU C5orf56 (11738088_a_at) / Fold change /veh C5orf56 (11738088_a_at) / RFU OLFML3 (11715873_a_at) / Fold change /veh OLFML3 (11715873_a_at) / RFU LOC100653217 /// NTM (11731650_a_at) / Fold change /veh LOC100653217 /// NTM (11731650_a_at) / RFU MAPK11 (11762145_a_at) / Fold change /veh MAPK11 (11762145_a_at) / RFU FIZ1 (11724087_x_at) / Fold change /veh FIZ1 (11724087_x_at) / RFU OASL (11726364_x_at) / Fold change /veh OASL (11726364_x_at) / RFU SOX15 (11748057_x_at) / Fold change /veh SOX15 (11748057_x_at) / RFU CD79A (11719716_a_at) / Fold change /veh CD79A (11719716_a_at) / RFU HIST1H1D (11736915_at) / Fold change /veh HIST1H1D (11736915_at) / RFU CASKIN2 (11723855_a_at) / Fold change /veh CASKIN2 (11723855_a_at) / RFU LOC730098 (11760151_x_at) / Fold change /veh LOC730098 (11760151_x_at) / RFU OR4N2 (11742367_at) / Fold change /veh OR4N2 (11742367_at) / RFU PRRT2 (11749266_a_at) / Fold change /veh PRRT2 (11749266_a_at) / RFU SNX32 (11753110_a_at) / Fold change /veh SNX32 (11753110_a_at) / RFU CDHR5 (11726645_a_at) / Fold change /veh CDHR5 (11726645_a_at) / RFU RCAN1 (11760418_a_at) / Fold change /veh RCAN1 (11760418_a_at) / RFU FAM167A (11723789_a_at) / Fold change /veh FAM167A (11723789_a_at) / RFU FAM26E (11764081_at) / Fold change /veh FAM26E (11764081_at) / RFU ISYNA1 (11749810_s_at) / Fold change /veh ISYNA1 (11749810_s_at) / RFU ACY1 (11761880_at) / Fold change /veh ACY1 (11761880_at) / RFU 11764098_at / Fold change /veh 11764098_at / RFU SAMD14 (11745864_x_at) / Fold change /veh SAMD14 (11745864_x_at) / RFU NPB (11741838_a_at) / Fold change /veh NPB (11741838_a_at) / RFU TMPRSS6 (11731388_a_at) / Fold change /veh TMPRSS6 (11731388_a_at) / RFU KRTAP10-2 (11738614_at) / Fold change /veh KRTAP10-2 (11738614_at) / RFU ARHGAP8 /// PRR5-ARHGAP8 (11727945_x_at) / Fold change /veh ARHGAP8 /// PRR5-ARHGAP8 (11727945_x_at) / RFU KRTAP5-7 /// NADSYN1 (11734609_at) / Fold change /veh KRTAP5-7 /// NADSYN1 (11734609_at) / RFU RASL12 (11751679_a_at) / Fold change /veh RASL12 (11751679_a_at) / RFU CDKN2B (11736163_a_at) / Fold change /veh CDKN2B (11736163_a_at) / RFU PRF1 (11729649_at) / Fold change /veh PRF1 (11729649_at) / RFU, ZNF638 /// ZNF638-IT1 / Fold change vs veh, ZNF638 /// ZNF638-IT1 / RFU, PANK3 / Fold change vs veh, PANK3 / RFU, SH3YL1 / Fold change vs veh, SH3YL1 / RFU, ZEB2 / Fold change vs veh, ZEB2 / RFU, NRIP1 / Fold change vs veh, NRIP1 / RFU, PTTG1IP / Fold change vs veh, PTTG1IP / RFU, CAPN2 / Fold change vs veh, CAPN2 / RFU, MED14 / Fold change vs veh, MED14 / RFU, SNORA58 / Fold change vs veh, SNORA58 / RFU, C1orf63 / Fold change vs veh, C1orf63 / RFU, LRRFIP1 / Fold change vs veh, LRRFIP1 / RFU, NDUFAF7 / Fold change vs veh, NDUFAF7 / RFU, SLC12A2 / Fold change vs veh, SLC12A2 / RFU, IBTK / Fold change vs veh, IBTK / RFU, ESF1 / Fold change vs veh, ESF1 / Fold change vs veh, TMEM50B / RFU, TAOK1 / Fold change vs veh, TAOK1 / RFU, ACBD3 / Fold change vs veh, ACBD3 / RFU, TMA16 / Fold change vs veh, TMA16 / RFU, RWDD3 / Fold change vs veh, RWDD3 / RFU, BCAT1 / Fold change vs veh, BCAT1 / RFU, EDEM3 / Fold change vs veh, EDEM3 / RFU, TMEM33 / Fold change vs veh, TMEM33 / RFU, WDR75 / Fold change vs veh, WDR75 / RFU, AHCTF1 / Fold change vs veh, AHCTF1 / RFU, TFRC / Fold change vs veh, TFRC / RFU, ZDHHC17 / Fold change vs veh, ZDHHC17 / RFU, NOM1 / Fold change vs veh, NOM1 / RFU, ARL8B / Fold change vs veh, ARL8B / RFU, ZBTB11 / Fold change vs veh, ZBTB11 / RFU, TAMM41 / Fold change vs veh, TAMM41 / RFU, KIAA1704 /// LOC100996395 / Fold change vs veh, KIAA1704 /// LOC100996395 / RFU, ING1 / Fold change vs veh, ING1 / RFU, TRMT61B / Fold change vs veh, TRMT61B / RFU, FUBP3 / Fold change vs veh, FUBP3 / RFU, TP53 / Fold change vs veh, TP53 / RFU, TNKS2 / Fold change vs veh, TNKS2 / RFU, ZFP14 / Fold change vs veh, ZFP14 / RFU, ACTR2 / Fold change vs veh, ACTR2 / RFU, PPP3R1 / Fold change vs veh, PPP3R1 / RFU, PIK3R1 / Fold change vs veh, PIK3R1 / RFU, HNRNPA1 / Fold change vs veh, HNRNPA1 / RFU, RNF170 / Fold change vs veh, RNF170 / RFU, ZNF28 / Fold change vs veh, ZNF28 / RFU, RNGTT / Fold change vs veh, RNGTT / RFU, OGT / Fold change vs veh, OGT / RFU, BRD1 / Fold change vs veh, BRD1 / RFU, MARS / Fold change vs veh, MARS / RFU, ZNF655 / Fold change vs veh, ZNF655 / RFU, FAHD1 / Fold change vs veh, FAHD1 / RFU, BDP1 / Fold change vs veh, BDP1 / RFU, LRRCC1 / Fold change vs veh, LRRCC1 / RFU, ARID1A / Fold change vs veh, ARID1A / RFU, ZNF146 / Fold change vs veh, ZNF146 / RFU, ZNF330 / Fold change vs veh, ZNF330 / RFU, GPN3 / Fold change vs veh, GPN3 / RFU, C9orf123 / Fold change vs veh, C9orf123 / RFU, N4BP2L2 / Fold change vs veh, N4BP2L2 / RFU, ARFIP1 / Fold change vs veh, ARFIP1 / RFU, FAM179B / Fold change vs veh, FAM179B / RFU, BCL10 / Fold change vs veh, BCL10 / RFU, UHRF1BP1L / Fold change vs veh, UHRF1BP1L / RFU, BET1 / Fold change vs veh, BET1 / RFU, CNOT2 / Fold change vs veh, CNOT2 / RFU, ZNF268 / Fold change vs veh, ZNF268 / Fold change vs veh, ZNF507 / RFU, DGCR2 / Fold change vs veh, DGCR2 / RFU, WDSUB1 / Fold change vs veh, WDSUB1 / Fold change vs veh, HSP90B1 /// MIR3652 / RFU, ADSS / Fold change vs veh, ADSS / RFU, GK / Fold change vs veh, GK / RFU, ZNF148 / Fold change vs veh, ZNF148 / RFU, TAF9 / Fold change vs veh, TAF9 / RFU, SLC1A5 / Fold change vs veh, SLC1A5 / RFU, SLMO2 / Fold change vs veh, SLMO2 / RFU, ABCC4 / Fold change vs veh, ABCC4 / RFU, LOC101060439 /// RAP1B / Fold change vs veh, LOC101060439 /// RAP1B / RFU, RFX7 / Fold change vs veh, RFX7 / RFU, GTPBP10 / Fold change vs veh, GTPBP10 / RFU, CNEP1R1 / Fold change vs veh, CNEP1R1 / RFU, BIVM-ERCC5 /// ERCC5 / Fold change vs veh, BIVM-ERCC5 /// ERCC5 / RFU, ILF3 / Fold change vs veh, ILF3 / RFU 11762660_at / Fold change /veh 11762660_at / RFU VCAN (11757783_s_at) / Fold change /veh VCAN (11757783_s_at) / RFU DDX43 (11728927_at) / Fold change /veh DDX43 (11728927_at) / RFU KRT8 (11758188_x_at) / Fold change /veh KRT8 (11758188_x_at) / RFU NKD1 (11759106_at) / Fold change /veh NKD1 (11759106_at) / RFU SRD5A1 (11742802_a_at) / Fold change /veh SRD5A1 (11742802_a_at) / RFU TPSAB1 /// TPSB2 (11721975_s_at) / Fold change /veh TPSAB1 /// TPSB2 (11721975_s_at) / RFU GSTM3 (11746129_a_at) / Fold change /veh GSTM3 (11746129_a_at) / RFU IL23R (11737362_x_at) / Fold change /veh IL23R (11737362_x_at) / RFU TMEM51 (11727254_a_at) / Fold change /veh TMEM51 (11727254_a_at) / RFU PIWIL2 (11732686_x_at) / Fold change /veh PIWIL2 (11732686_x_at) / RFU ORM1 (11744905_x_at) / Fold change /veh ORM1 (11744905_x_at) / RFU CCDC152 (11743942_at) / Fold change /veh CCDC152 (11743942_at) / RFU ECM1 (11717891_a_at) / Fold change /veh ECM1 (11717891_a_at) / RFU IL23R (11748794_a_at) / Fold change /veh IL23R (11748794_a_at) / RFU TNFAIP8L3 (11732012_x_at) / Fold change /veh TNFAIP8L3 (11732012_x_at) / RFU MBOAT4 (11741988_at) / Fold change /veh MBOAT4 (11741988_at) / RFU 11764193_at / Fold change /veh 11764193_at / RFU TMEM53 (11763286_at) / Fold change /veh TMEM53 (11763286_at) / RFU MAGEB2 (11727129_at) / Fold change /veh MAGEB2 (11727129_at) / RFU TMEM200A (11744735_a_at) / Fold change /veh TMEM200A (11744735_a_at) / RFU CCDC152 (11751479_a_at) / Fold change /veh CCDC152 (11751479_a_at) / RFU FAM211A (11726209_a_at) / Fold change /veh FAM211A (11726209_a_at) / RFU RGS16 (11746705_a_at) / Fold change /veh RGS16 (11746705_a_at) / RFU VCAN (11755009_s_at) / Fold change /veh VCAN (11755009_s_at) / RFU RHOB (11743442_s_at) / Fold change /veh RHOB (11743442_s_at) / RFU RGS16 (11720943_a_at) / Fold change /veh RGS16 (11720943_a_at) / RFU RGS16 (11720944_at) / Fold change /veh RGS16 (11720944_at) / RFU, VPS4B / Fold change vs veh, VPS4B / RFU, CREB1 / Fold change vs veh, CREB1 / RFU, DNAJC13 / Fold change vs veh, DNAJC13 / RFU, GNAQ / Fold change vs veh, GNAQ / RFU, CDK5R1 / Fold change vs veh, CDK5R1 / RFU, ZRANB3 / Fold change vs veh, ZRANB3 / RFU, CUL4A / Fold change vs veh, CUL4A / RFU, CCNY / Fold change vs veh, CCNY / RFU, UFL1 / Fold change vs veh, UFL1 / RFU, COG3 / Fold change vs veh, COG3 / RFU, DIAPH2 / Fold change vs veh, DIAPH2 / RFU, SKA2 / Fold change vs veh, SKA2 / RFU, AFF3 / Fold change vs veh, AFF3 / RFU, LMF1 / Fold change vs veh, LMF1 / RFU, IPO11 / Fold change vs veh, IPO11 / RFU, DFFB / Fold change vs veh, DFFB / RFU, FOXP1 / Fold change vs veh, FOXP1 / RFU, CARD8 / Fold change vs veh, CARD8 / RFU, STRN3 / Fold change vs veh, STRN3 / RFU, ADK / Fold change vs veh, ADK / RFU, RASSF2 / Fold change vs veh, RASSF2 / RFU, WIPF1 / Fold change vs veh, WIPF1 / RFU, LARP1B / Fold change vs veh, LARP1B / RFU, RASA1 / Fold change vs veh, RASA1 / RFU, RB1 / Fold change vs veh, RB1 / RFU, PPFIA1 / Fold change vs veh, PPFIA1 / RFU, MAT2A / Fold change vs veh, MAT2A / RFU, CCT5 / Fold change vs veh, CCT5 / RFU, WDR92 / Fold change vs veh, WDR92 / RFU, CUX1 / Fold change vs veh, CUX1 / RFU, TTC7A / Fold change vs veh, TTC7A / RFU, TMEM135 / Fold change vs veh, TMEM135 / RFU, DEPTOR / Fold change vs veh, DEPTOR / RFU, CPM / Fold change vs veh, CPM / RFU, DNAJB6 / Fold change vs veh, DNAJB6 / RFU, CACNA2D3 / Fold change vs veh, CACNA2D3 / RFU, DTX4 / Fold change vs veh, DTX4 / RFU, TFCP2 / Fold change vs veh, TFCP2 / RFU, GMCL1 /// GMCL1P1 / Fold change vs veh, GMCL1 /// GMCL1P1 / RFU, AEBP2 / Fold change vs veh, AEBP2 / RFU, SNHG1 /// SNORD22 /// SNORD25 /// SNORD26 /// SNORD27 /// SNORD28 /// SNORD29 /// SNORD31 / Fold change vs veh, SNHG1 /// SNORD22 /// SNORD25 /// SNORD26 /// SNORD27 /// SNORD28 /// SNORD29 /// SNORD31 / Fold change (Aza/veh), C12orf56 (ProbeSet 11735607_a_at) / Fold change (ACY-1035/veh), C12orf56 (ProbeSet 11735607_a_at) / Fold change (Aza/veh), FGFR1OP (ProbeSet 11751329_s_at) / Fold change (ACY-1035/veh), FGFR1OP (ProbeSet 11751329_s_at) / Fold change (Aza/veh), VPS36 (ProbeSet 11739960_a_at) / Fold change (ACY-1035/veh), VPS36 (ProbeSet 11739960_a_at) / RFU SYPL1 (11715823_x_at) / Fold change /veh SYPL1 (11715823_x_at) / RFU IGFBP7 (11715501_s_at) / Fold change /veh IGFBP7 (11715501_s_at) / RFU REEP3 (11722064_at) / Fold change /veh REEP3 (11722064_at) / RFU IGLL1 (11728026_x_at) / Fold change /veh IGLL1 (11728026_x_at): dose or concentration left out as unconfirmed
Settings: ProbeSet 11762504_a_at; LIST D

Compound: Nc1ncn([C@@H]2O[C@H](CO)[C@@H](O)[C@H]2O)c(=O)n1 [azacitidine]
- RFU, ZRANB3: 79.10 RFU
